# According to patent US9956232B2, “Dialkyl-phosphinoyl-alkane (Dapa) compounds and compositions for treatment of lower gastrointestinal tract disorders” (priority 2016, dated 2018):
# Where “and” joins values, the source holds several entries; their conditions need not be identical. Equal values may be shown once. Entries after “also recorded” stand apart in the source; their conditions may differ.
# Key:
# [1] = system: pentobarbital-anesthetized male rats; assay: Shaking frequency (wet-dog shaking) of anesthetized rats after intravenous, perioral or topical delivery; assay type: in vivo; conditions: anesthetized rat; for Shaking frequency, Intravenous: 2 mg/kg i.v., 2nd trial, counted for 15 min; for Shaking frequency, Perioral: 20 mg/kg by oral gavage, counted for 40 min; for Shaking frequency, Topical: 20 μL pure compound on shaved abdominal skin, counted for 1 hr
# Protocol: In experiments conducted here, test compounds were evaluated for “wet-dog shaking” as a model of cooling sensation. Using a standardized procedure, test compounds were compared in their ability to stimulate the shaking response by intravenous injection into a cannulated femoral vein, by perioral administration, and by topical delivery to the abdominal skin.
# Each rat was given two injections with a 30 min interval. […] Shaking frequency was counted for 15 min after injection. Shaking was observed immediately after i.v. injection and at least 78% of the total shakes occurred in the first 5 min after injection. The response in the second trial was at least as robust in the first trial, showing the lack of desensitization.
# Test compounds were dissolved in saline and administered by oral gavage to pentobarbital-anesthetized male albino rats at 20 mg/kg at a volume of 0.1 mL/100 g body weight [N=3 to 4 rats per compound]. Shaking was counted over a 40 min period and recorded at 10-min intervals.
# For topical application of DAPA, the abdominal skin of the anesthetized rat was shaved and 20 μL of the pure DAPA was applied with a micropipette onto a ˜1 cm diameter circle of skin, enclosed with a ring of cream [Baby cream “Nevskaya kosmetika Detskyi” Nevskaya Kosmetika Inc., Saint-Petersburg 192029], as shown in FIG. 5D. The number of shakes was counted for 1 hr after application.
# [2] = target: T1, TRPM8 (Homo sapiens, UniProt Q7Z2W7); assay: TRPM8 receptor agonist assay (Fluo-8 calcium, FLIPR); assay type: cell-based; design: host or cells: CHO cells, stably transfected; conditions: for ×Menthol: TRPM8 relative potency as repeated in Table 4; for Relative Potency: relative to menthol = 1.0 (Table 2)
# Protocol: Compounds were tested on (CHO) cells stably transfected with human TRPM8 cDNAs using a Fluo-8 calcium kit and a Fluorescence Imaging Plate Reader ([…]™) instrument. […] Solutions were prepared by diluting stock solutions in a HEPES-buffered physiological saline (HBPS) solution. Test compound and control formulations were loaded in polypropylene or glass-lined 384-well plates, and placed into the FLIPR instrument (Molecular Devices Corporation, Union City, Calif., USA). Each was tested at 8 concentrations with n=4 replicates per determination. […] For […]™ assay, cells were plated in 384-well black wall, flat clear-bottom microtiter plates (Type: BD Biocoat Poly-D-Lysine Multiwell Cell Culture Plate) at approximately 30,000 cells per well. Cells were incubated at 37° C. overnight to reach a near confluent monolayer appropriate for use in a fluorescence assay. The test procedure was to remove the growth media and to add 40 μL of HBPS containing Fluo-8 for 30 minutes at 37° C. 10 μL of test compound, vehicle, or control solutions in HBPS were added to each well and read for 4 minutes. Concentration-response data were analysed via the FLIPR Control software that is supplied with the FLIPR System (MDS-AT) and fitted to a Hill equation.
# Target sequence in this assay (Q7Z2W7 whole entry): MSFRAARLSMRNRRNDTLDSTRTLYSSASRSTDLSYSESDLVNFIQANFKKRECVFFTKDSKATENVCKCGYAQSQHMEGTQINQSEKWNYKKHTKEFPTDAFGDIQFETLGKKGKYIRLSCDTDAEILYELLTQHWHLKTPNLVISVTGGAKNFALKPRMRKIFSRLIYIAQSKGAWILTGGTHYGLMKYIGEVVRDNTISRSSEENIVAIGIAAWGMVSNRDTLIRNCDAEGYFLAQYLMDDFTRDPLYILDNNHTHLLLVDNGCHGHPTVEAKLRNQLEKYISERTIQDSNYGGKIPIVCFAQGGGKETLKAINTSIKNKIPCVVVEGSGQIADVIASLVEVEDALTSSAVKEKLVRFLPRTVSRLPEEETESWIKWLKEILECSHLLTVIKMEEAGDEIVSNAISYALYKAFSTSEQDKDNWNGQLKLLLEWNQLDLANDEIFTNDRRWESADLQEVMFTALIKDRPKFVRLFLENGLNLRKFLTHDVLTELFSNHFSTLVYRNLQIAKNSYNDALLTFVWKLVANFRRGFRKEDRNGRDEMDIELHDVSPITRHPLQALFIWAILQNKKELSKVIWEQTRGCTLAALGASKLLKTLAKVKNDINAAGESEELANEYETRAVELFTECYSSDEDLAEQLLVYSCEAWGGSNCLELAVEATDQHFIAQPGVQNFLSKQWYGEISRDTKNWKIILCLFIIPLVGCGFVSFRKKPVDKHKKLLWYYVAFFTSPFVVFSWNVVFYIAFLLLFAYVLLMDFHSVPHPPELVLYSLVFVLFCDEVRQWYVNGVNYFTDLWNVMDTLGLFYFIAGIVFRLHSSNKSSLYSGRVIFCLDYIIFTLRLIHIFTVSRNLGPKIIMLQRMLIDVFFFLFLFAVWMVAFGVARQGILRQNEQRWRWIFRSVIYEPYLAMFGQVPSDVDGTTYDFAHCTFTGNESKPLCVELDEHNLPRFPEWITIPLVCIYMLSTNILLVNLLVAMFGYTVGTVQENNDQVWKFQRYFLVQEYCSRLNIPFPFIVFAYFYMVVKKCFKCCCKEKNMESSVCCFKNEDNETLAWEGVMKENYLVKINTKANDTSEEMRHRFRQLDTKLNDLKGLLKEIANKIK
# [3] = system: heat-induced edema in the anesthetized rat paw; assay: Heat-induced edema in the anesthetized rat paw; assay type: in vivo; conditions: 20 mg/mL, 0.3 mL per paw, 30 min before 58° C. water 1 min; relative to contralateral paw
# From the text: Inflammation is defined as the reaction of vascularized living tissue to local injury [Cotran, R S. 1989. Inflammation and repair. In Robbins: Pathologic Basis of Disease, ed. S. L. Robbins, R. S. Cotran, V. Kumar, 2:39-86. Philadelphia: Saunders. 4th ed.]. The characteristic signs of inflammation are redness, swelling, heat, and pain (and loss of function). The anti-inflammatory properties of the DAPA compounds were studied in a model of heat-induced vascular leakage [Wei et al. Method of inhibiting inflammatory response. U.S. Pat. No. 4,801,612; Wei et al., Anti-inflammatory peptide agonists. Annual Review Pharmacol Toxicol. 33:9-108, 1993]. When the paws of pentobarbital-anesthetized rats (200 to 300 g body weight) are immersed in 58° C. water for 1 min, the normal paw volume of about 1.8 mL was increased by ˜88% within 30 min, the swelling being due to an increase in water content of the paw.
# Test compounds were dissolved in 20% water-80% R-1,2-propanediol at 20 mg/mL. The solutions were applied to the paw skin of pentobarbital-anesthetized rats (200 to 300 g body weight) at 0.3 mL per paw, using a syringe attached to a blunt 21 gauge needle covered at its tip with a piece of polyethylene 60 tubing. After distributing the solution over the paw, the paw was tightly enclosed in a plastic finger cut from a disposable glove. The contralateral paw [control] received only the vehicle. Thirty min after application, both paws were immersed in 58° C. water for 1 min. Thirty min after immersion, both paws were cut at ankle joint with scissors and weighed.
# This degree of inhibition is significant for tissue protection as the injury stimulus is of supra-maximal intensity. The DAPA-2-5 effect was apparent to the untrained observer.
# [4] = system: Strains TA 98 and TA100; assay: Ames test; assay type: cell-based; conditions: TA 98 and TA100, with and without liver activation
# Protocol: Preliminary toxicological studies were conducted on DAPA-2-5 and DAPA-2-7.
# [5] = Repeated-dose toxicity in male rats (organ weights, histology); assay type: in vivo, rat; conditions: 30 mg/kg subcutaneously daily for 7 days, male rats
# [6] = target: TRPV1 (Homo sapiens, UniProt Q8NER1); assay: TRPV1 selectivity assay, calcium entry in transfected HEK293 cells; assay type: cell-based; design: expressed in transfected cells; host or cells: HEK293 cells; conditions: maximum tested concentration 100 μM
# From the text: (§1) The selectivity of test compounds were examined on TRPV1 channels (human TRPV1 gene expressed in HEK293 cells) and TRPA1 channels (human TRPA1 gene expressed in CHO cells). The test cells were Chinese Hamster Ovary (CHO) cells or Human Embyronic Kidney (HEK) 293 cells transfected with human TRPV1 or TRPA1 cDNAs.
# (§2) The ordinate is given in Relative Fluorescence Units; % of maximum, which measure calcium entry into the transfected cells and the abscissa is the logarithm of the concentration of the test compound.
# [7] = system: isolated mouse vagus; assay: Capsaicin-induced depolarization of the isolated vagus nerve
# From the text: An isolated vagus nerve model was developed at Imperial College, London, U.K. [Birrell et al. TrpA1 agonists evoke coughing in guinea pig and human volunteers. Amer. J. respiratory and critical care medicine 180, 1042-7, 2009; Patel, H. J. et al. Inhibition of guinea-pig and human sensory nerve activity and the cough reflex in guinea-pigs by cannabinoid (CB2) receptor activation. Brit. J. Pharmacol. 140, 261-8, 2003]. In this in vitro assay, segments of the mouse vagus nerve are placed on a platform and the electrical activity is recorded after topical application of capsaicin. Capsaicin is a known irritant that elicits pain when it is applied to the skin and it will depolarize the isolated vagus. […] The similar effect of DAPA-2-5 in this test system was published in U.S. Ser. No. 14/55,042. Briefly, segments of vagus nerve, caudal to the nodose ganglion, were removed from mice with fine forceps and segments placed in oxygenated Krebs solution and bubbled with 95% O2/5% CO2. The desheathed nerve trunk was mounted in a ‘grease-gap’ recording chamber and constantly superfused with Krebs solution with a flow rate of approximately 2 mL/min, and the electrical activity of the nerve monitored with electrodes. The temperature of the perfusate was kept constant at 37° C. by a water bath. Nerve depolarizations were induced by superfusion of the nerve with capsaicin (1 μM). After two reproducible depolarization responses to capsaicin, DIPA-1-7 was applied at 1 mg/mL for 10 minutes in the perfusate followed by capsaicin.
# [8] = target: TRPA1 (Homo sapiens, UniProt O75762); assay: TRPA1 selectivity assay, calcium entry in transfected CHO cells; assay type: cell-based; design: expressed in transfected cells; host or cells: CHO cells; conditions: maximum tested concentration 100 μM
# From the text: as §1, §2
# [9] = target: T1, TRPM8; assay: TRPM8 assay of DIPA-1-10 at King's College, different assay conditions; assay type: cell-based
# From the text: [Table 2] […] The data for DIPA-1-10 is not included in the Table 2 or Figure because it was obtained under different assay conditions.
# Target sequence in this assay (Q7Z2W7 whole entry, species assumed): as the sequence (Q7Z2W7 whole entry) above
# [10] = target: T1, TRPM8; conditions: literature; cited from earlier work
# Target sequence in this assay (Q7Z2W7 whole entry, species assumed): as the sequence (Q7Z2W7 whole entry) above
# Chain of TRPA1 (O75762 whole entry): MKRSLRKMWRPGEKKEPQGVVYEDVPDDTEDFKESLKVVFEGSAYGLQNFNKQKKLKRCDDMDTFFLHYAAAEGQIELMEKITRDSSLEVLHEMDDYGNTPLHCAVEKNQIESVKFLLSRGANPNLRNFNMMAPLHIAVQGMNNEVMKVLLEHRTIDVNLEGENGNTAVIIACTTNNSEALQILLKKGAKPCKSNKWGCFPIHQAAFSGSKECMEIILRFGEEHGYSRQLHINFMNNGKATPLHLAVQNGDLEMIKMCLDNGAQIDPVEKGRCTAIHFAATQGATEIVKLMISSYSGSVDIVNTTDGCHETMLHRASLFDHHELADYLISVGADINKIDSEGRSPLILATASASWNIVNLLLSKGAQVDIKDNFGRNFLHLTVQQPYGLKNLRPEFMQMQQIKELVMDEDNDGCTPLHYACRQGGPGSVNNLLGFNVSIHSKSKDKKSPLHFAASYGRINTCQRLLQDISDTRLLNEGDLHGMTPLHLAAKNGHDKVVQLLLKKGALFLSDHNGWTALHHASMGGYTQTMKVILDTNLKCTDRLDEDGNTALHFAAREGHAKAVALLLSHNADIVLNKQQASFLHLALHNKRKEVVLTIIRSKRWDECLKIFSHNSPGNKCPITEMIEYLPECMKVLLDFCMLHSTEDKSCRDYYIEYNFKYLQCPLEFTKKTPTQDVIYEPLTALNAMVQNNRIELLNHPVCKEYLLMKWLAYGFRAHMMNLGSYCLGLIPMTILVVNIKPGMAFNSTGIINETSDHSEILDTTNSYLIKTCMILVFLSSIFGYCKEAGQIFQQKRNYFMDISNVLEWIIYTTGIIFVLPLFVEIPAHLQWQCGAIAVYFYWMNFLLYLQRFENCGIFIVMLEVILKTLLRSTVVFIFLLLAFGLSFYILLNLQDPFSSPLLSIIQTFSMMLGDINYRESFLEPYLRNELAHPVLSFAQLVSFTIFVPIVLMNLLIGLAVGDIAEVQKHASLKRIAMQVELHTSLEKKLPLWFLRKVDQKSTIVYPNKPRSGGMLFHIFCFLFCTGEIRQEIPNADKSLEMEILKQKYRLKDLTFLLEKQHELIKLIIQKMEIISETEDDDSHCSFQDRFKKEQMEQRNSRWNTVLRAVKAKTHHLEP
# Chain of TRPV1 (Q8NER1 whole entry): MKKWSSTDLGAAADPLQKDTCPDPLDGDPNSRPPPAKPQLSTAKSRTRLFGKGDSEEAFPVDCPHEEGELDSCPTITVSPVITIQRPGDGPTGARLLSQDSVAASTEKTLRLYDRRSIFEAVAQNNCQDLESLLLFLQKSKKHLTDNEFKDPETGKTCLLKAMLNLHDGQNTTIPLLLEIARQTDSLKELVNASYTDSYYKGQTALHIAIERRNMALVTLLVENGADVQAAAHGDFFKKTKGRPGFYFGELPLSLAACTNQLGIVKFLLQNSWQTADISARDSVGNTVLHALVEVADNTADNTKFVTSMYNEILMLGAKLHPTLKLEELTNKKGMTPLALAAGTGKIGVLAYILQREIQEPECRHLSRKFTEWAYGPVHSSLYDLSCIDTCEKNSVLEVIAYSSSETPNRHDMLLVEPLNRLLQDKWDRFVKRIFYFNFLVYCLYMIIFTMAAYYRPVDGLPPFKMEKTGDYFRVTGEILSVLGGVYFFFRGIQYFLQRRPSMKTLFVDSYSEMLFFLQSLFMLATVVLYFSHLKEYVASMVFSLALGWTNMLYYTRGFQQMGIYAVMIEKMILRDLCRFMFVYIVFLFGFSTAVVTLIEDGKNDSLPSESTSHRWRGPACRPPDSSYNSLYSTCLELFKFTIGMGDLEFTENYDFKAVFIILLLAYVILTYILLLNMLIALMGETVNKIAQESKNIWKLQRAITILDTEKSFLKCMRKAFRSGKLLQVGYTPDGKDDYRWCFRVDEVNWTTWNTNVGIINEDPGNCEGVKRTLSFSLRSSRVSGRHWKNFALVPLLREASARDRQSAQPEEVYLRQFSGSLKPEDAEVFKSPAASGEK
smiles,measurement,setting,value
"CCCCP(=O)(C(C)CC)C(C)CC (centres unmarked) [DAPA-2-4, 1-Di(sec-butyl) phosphinoyl-butane]","Shaking frequency, Intravenous",[1],8 ± 2 shakes
same,"Shaking frequency, Perioral",[1],0 shakes
same,"Shaking frequency, Topical",[1],0 shakes
same,×Menthol,[2],0.3
same,Relative Potency,[2],0.3
"CCCCCCP(=O)(C(C)CC)C(C)CC (centres unmarked) [DAPA-2-6, 1-Di(sec-butyl) phosphinoyl-hexane]","Shaking frequency, Intravenous",[1],30 ± 3 shakes
same,"Shaking frequency, Perioral",[1],0 shakes
same,"Shaking frequency, Topical",[1],0 shakes
same,Inhibition of Heat Edema (±S.E.M.),[3],2.9 ± 1.4%
same,×Menthol,[2],4.7
same,Relative Potency,[2],4.7
"CCCCCCCP(=O)(C(C)CC)C(C)CC (centres unmarked) [DAPA-2-7, 1-Di(sec-butyl) phosphinoyl-heptane]","Shaking frequency, Intravenous",[1],15 ± 2 shakes
same,"Shaking frequency, Perioral",[1],0 shakes
same,"Shaking frequency, Topical",[1],0 shakes
same,mutagenicity in the Ames test,[4],Neither of these compounds was mutagenic
same,Inhibition of Heat Edema (±S.E.M.),[3],5.2 ± 2.1%
same,body or organ weights vs vehicle,[5],no significant differences in body or organ weights
same,heart and liver histology,[5],normal
same,×Menthol,[2],3.4
same,Relative Potency,[2],3.4
"CCCCCCCCP(=O)(C(C)CC)C(C)CC (centres unmarked) [DAPA-2-8, 1-Di(sec-butyl) phosphinoyl-octane]","Shaking frequency, Intravenous",[1],2. shakes
same,"Shaking frequency, Perioral",[1],0 shakes
same,"Shaking frequency, Topical",[1],0 shakes
same,×Menthol,[2],2.9
same,Relative Potency,[2],2.9
"CCCCCP(=O)(CC(C)C)CC(C)C [DAPA-3-1, 1-Di(iso-butyl) phosphinoyl-pentane]",Relative Potency,[2],0.2
"CCC(C)P(=O)(CCC(C)C)C(C)CC (centres unmarked) [DAPA-3-2, 1-Di(sec-butyl) phosphinoyl-3-methyl-butane]",Relative Potency,[2],0.9
"CCCCCP(=O)(C(C)C)C(C)C [DIPA-1-5, 1-Diisopropyl-phosphinoyl-pentane]","Shaking frequency, Intravenous",[1],19 ± 3 shakes
same,"Shaking frequency, Perioral",[1],86 shakes and 86 ± 7 shakes
same,"Shaking frequency, Topical",[1],138 ± 15 shakes
same,×Menthol,[2],0.7
same,Relative Potency,[2],0.7
"CCCCCCP(=O)(C(C)C)C(C)C [DIPA-1-6, 1-Diisopropyl-phosphinoyl-hexane]","Shaking frequency, Intravenous",[1],39 ± 4 shakes
same,"Shaking frequency, Perioral",[1],56 shakes and 56 ± 5 shakes
same,"Shaking frequency, Topical",[1],69 ± 8 shakes
same,×Menthol,[2],1.6
same,Relative Potency,[2],1.6
"CCCCCCCP(=O)(C(C)C)C(C)C [DIPA-1-7, 1-Diisopropyl-phosphinoyl-heptane]",agonist or antagonist activity on TRPV1 channels,[6],did not exhibit significant agonist on antagonist activity; also recorded: slight non-dose-dependent agonist action
same,inhibition at 1000 µg/mL,"[7]; isolated TRPM8 knock-out mouse vagus, 1 mg/mL, capsaicin 1 μM, read-out: percent inhibition of capsaicin-induced depolarization",~20%
same,depolarization evoked by the compound by itself,"[7]; isolated mouse vagus, no capsaicin",did not evoke depolarization
same,percent inhibition of capsaicin-induced depolarization,"[7]; isolated normal (wild type) mouse vagus, 1 mg/mL superfused 10 min, capsaicin 1 μM",about 75%
same,agonist or antagonist activity on TRPA1 channels,[8],did not exhibit significant agonist on antagonist activity
same,"Shaking frequency, Intravenous",[1],25 ± 3 shakes
same,"Shaking frequency, Perioral",[1],36 shakes and 36 ± 4 shakes
same,"Shaking frequency, Topical",[1],79 ± 8 shakes
same,Inhibition of Heat Edema (±S.E.M.),[3],−1.5 ± 2.0%
same,×Menthol,[2],5.4
same,Relative Potency,[2],5.4
"CCCCCCCCP(=O)(C(C)C)C(C)C [DIPA-1-8, 1-Diisopropyl-phosphinoyl-octane]",agonist or antagonist activity on TRPV1 channels,[6],did not exhibit significant agonist on antagonist activity
same,agonist or antagonist activity on TRPV1 channels,[6]; listed as DAPA-1-8,devoid of agonist or antagonist activities
same,agonist or antagonist activity on TRPA1 channels,[8],did not exhibit significant agonist on antagonist activity
same,agonist or antagonist activity on TRPA1 channels,[8]; listed as DAPA-1-8,devoid of agonist or antagonist activities
same,"Shaking frequency, Intravenous",[1],14 ± 2 shakes
same,"Shaking frequency, Perioral",[1],0 shakes
same,"Shaking frequency, Topical",[1],7 ± 2 shakes
same,Inhibition of Heat Edema (±S.E.M.),[3],−5.0 ± 2.7%
same,×Menthol,[2],5.4
same,Relative Potency,[2],5.4
CCCCCCCCCCP(=O)(C(C)C)C(C)C [DIPA-1-10],potency × menthol,[9],1.7 ×
same,times less active than DIPA-1-9,[9],2.4 ×
O=C1NC(c2cccc([N+](=O)[O-])c2)=CCN1c1ccccc1O [Icilin],TRPM8 agonist potency × menthol,[10],200 ×
"COc1cc(CNC(=O)CCCC/C=C/C(C)C)ccc1O [capsaicin, reference compound]",agonist or antagonist activity on TRPV1 channels,[6],active
